In ChEMBL document CHEMBL1201862, “PubChem BioAssay data set” (2004):
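Five concentrations, 48 hours, 96-well plates. GI50: concentration for 50% inhibition of growth.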 Calls of active or inactive are those of the source. Cut-off read from the data, not from the text of the source: active = GI50 up to about 1.1 µM and inactive = higher.

How the values were obtained:
Assay in all cases: NCI-60 cell line screen, 48 h
SNB-19 = tested on: SNB-19
NCI-H226 = tested on: NCI-H226
SK-MEL-2 = tested on: SK-MEL-2
SF-268 = tested on: SF-268
TK-10 = tested on: TK-10
MDA-MB-435 = tested on: MDA-MB-435
NCI-H23 = tested on: NCI-H23
SR = tested on: SR
MCF7 = tested on: MCF7
OVCAR-4 = tested on: OVCAR-4
SN12C = tested on: SN12C
OVCAR-5 = tested on: OVCAR-5
SF-539 = tested on: SF-539
CAKI-1 = tested on: CAKI-1
A549 = tested on: A549
786-0 = tested on: 786-0
SK-MEL-28 = tested on: SK-MEL-28
SK-MEL-5 = tested on: SK-MEL-5
OVCAR-3 = tested on: OVCAR-3
SF-295 = tested on: SF-295

Measured: GI50

CC(CC(C)[C@H]1CCC2[C@H]3C(CC(=O)[C@@]21C)[C@@]1(C)CCC(O)C[C@H]1C[C@@H]3O)C(=O)O (some centres undefined)
inactive: SNB-19 > 100 µM | NCI-H226 > 100 µM | SK-MEL-2 > 100 µM | SF-268 > 100 µM | TK-10 > 100 µM | MDA-MB-435 > 100 µM | NCI-H23 > 100 µM | SR 18.3 µM | MCF7 92.3 µM | OVCAR-4 > 100 µM | SN12C > 100 µM | OVCAR-5 > 100 µM | SF-539 > 100 µM | CAKI-1 > 100 µM | A549 > 100 µM | 786-0 > 100 µM | SK-MEL-28 > 100 µM

Cn1ncc2c(NCc3ccccc3)ncnc21
inactive: SK-MEL-5 > 100 µM | OVCAR-3 > 100 µM | SF-295 > 100 µM | SNB-19 > 100 µM | NCI-H226 > 100 µM | SF-268 > 100 µM | TK-10 > 100 µM | MDA-MB-435 > 100 µM | NCI-H23 > 100 µM | SR > 100 µM | MCF7 > 100 µM | OVCAR-4 > 100 µM | SN12C > 100 µM | OVCAR-5 > 100 µM | SF-539 > 100 µM | CAKI-1 > 100 µM | A549 > 100 µM | 786-0 > 100 µM | SK-MEL-28 > 100 µM

O=C1/C(=C/c2ccc(Br)s2)NC(=S)N1c1ccccc1
inactive: SK-MEL-5 63.2 µM | OVCAR-3 62.4 µM | SF-295 43.6 µM | SNB-19 26.9 µM | NCI-H226 > 100 µM | SK-MEL-2 > 100 µM | SF-268 > 100 µM | TK-10 > 100 µM | MDA-MB-435 86.3 µM | NCI-H23 > 100 µM | SR > 100 µM | MCF7 34.5 µM | OVCAR-4 27 µM | SN12C 74.3 µM | OVCAR-5 > 100 µM | CAKI-1 44.5 µM | 786-0 40.8 µM | SK-MEL-28 > 100 µM

COc1cc(C=O)cc(/C=N/N=C/c2ccccc2O)c1O
inactive: SK-MEL-5 29.1 µM | OVCAR-3 25.5 µM | SF-295 2.7 µM | SNB-19 32.3 µM | NCI-H226 16.6 µM | SK-MEL-2 17.3 µM | SF-268 36.6 µM | TK-10 82.6 µM | MDA-MB-435 23.9 µM | NCI-H23 23.6 µM | SR 19.8 µM | MCF7 64.7 µM | OVCAR-4 > 100 µM | SN12C 17.6 µM | SF-539 4.73 µM | CAKI-1 19.8 µM | A549 79.6 µM | 786-0 19.2 µM | SK-MEL-28 14.7 µM

N#C[C@H](C(=O)c1ccccc1F)c1nc2ccccc2[nH]1
inactive: OVCAR-3 > 100 µM | SF-295 > 100 µM | SNB-19 > 100 µM | NCI-H226 > 100 µM | SK-MEL-2 > 100 µM | SF-268 > 100 µM | TK-10 > 100 µM | MDA-MB-435 > 100 µM | NCI-H23 > 100 µM | SR 58.9 µM | MCF7 92 µM | OVCAR-4 > 100 µM | SN12C > 100 µM | OVCAR-5 > 100 µM | SF-539 > 100 µM | CAKI-1 > 100 µM | A549 > 100 µM | 786-0 > 100 µM | SK-MEL-28 > 100 µM

O=[N+]([O-])c1ccc(C2=NOC(c3ccc(Cl)cc3)N2C23CC4CC(CC(C4)C2)C3)cc1 (centres undefined)
inactive: SK-MEL-5 53 µM | OVCAR-3 > 100 µM | SF-295 > 100 µM | SNB-19 > 100 µM | NCI-H226 64.9 µM | SK-MEL-2 20.2 µM | SF-268 > 100 µM | TK-10 > 100 µM | MDA-MB-435 > 100 µM | NCI-H23 > 100 µM | SR 67.9 µM | MCF7 40.6 µM | OVCAR-4 > 100 µM | SN12C > 100 µM | SF-539 > 100 µM | CAKI-1 16.6 µM | A549 56.9 µM | 786-0 > 100 µM | SK-MEL-28 > 100 µM

COc1ccc(Oc2nc3ccc(C(F)(F)F)cc3nc2-c2ccccc2)cc1
inactive: SK-MEL-5 > 100 µM | OVCAR-3 > 100 µM | SF-295 > 100 µM | SNB-19 > 100 µM | NCI-H226 > 100 µM | SK-MEL-2 > 100 µM | SF-268 > 100 µM | TK-10 > 100 µM | MDA-MB-435 > 100 µM | NCI-H23 1.13 µM | SR 13.1 µM | MCF7 65.5 µM | OVCAR-4 > 100 µM | SN12C > 100 µM | OVCAR-5 > 100 µM | CAKI-1 > 100 µM | 786-0 > 100 µM | SK-MEL-28 > 100 µM
